Laboratory results taken from patent US20050031537A1, “Multifunctional COX-2 inhibitors” (priority 2002, published 2005).

Tests used:
[1] = system: HER-2/neu; test: Western blotting for expression of HER-2/neu (test (b)); type: cell-based, human; conditions: positive in 184B5/HER, BT474 and SKBR3 cells; 24 h; Western blot
Source text: We turn now to the criterion (b), that is at least 50% decrease in level of or 50% downregulation of expression of Class I family of receptors tyrosine kinase. The Class I family of receptors tyrosine kinase is described in Reese, M. D., et al Stem Cells 15, pages 1-8 (1997), the whole of which in incorporated herein by reference. Members of the family include HER-2/neu, HER-3, HER-4 and epidermal growth factor receptor (EGFR) and are single-chain membrane spanning proteins which have significant homology to one another including about 80% amino acid identity in the tyrosine kinase domain.
HER-2/neu (erbB-2) gene product is a 185-kDA transmembrane receptor tyrosine kinase that is described in some detail in said Reese et al publication and overexpression thereof has been associated with tumor growth in several kinds of cancer.
To evaluate the expression of Class I family of receptors tyrosine kinase (EGFR, HER-2/neu), Western blotting can be performed. Antibodies for EGFR and HER-2/neu can be obtained from Santa Cruz Biotechnology, Inc.
Expression of EGFR (performed in 184B5, 184B5/HER, 1483, LNCaP, HeLa and CaSki cells)and HER-2/neu (performed in 184B5/HER, SKBR3 and BT474 cells) was assessed in cells after treatment with test compound for 24 hours. 5×10^6 cells were used for the treatment. Western blotting technique was used to assess the expression levels in cells treated with the test compound compared to vehicle alone. Western blotting was carried out as follows:
Cell lysates were prepared by treating cells with lysis buffer (150 mM NaCl, 100 mM Tris (pH 8.0), 1% Tween 20, 50 mM diethyldithiocarbamate, 1 mM EDTA, 1 mM phenylmethylsulfonyl fluoride, 10 μg/ml aprotinin, 10 μg/ml trypsin inhibitor and 10 μg/ml leupeptin). Lysates were sonicated for 20 s on ice and centrifuged at 10,000×g for 10 min to sediment the particulate material. The protein concentration of the supernatant was measured by the method of Lowry, O. H., et al., J. Biol. Chem. 193, 265-275 (195 1). SDS/PAGE was performed under reducing conditions on 10% polyacrylamide gels as described by Laemmli, U.K., Nature (Lond.) 227, 680-685 (1970). The resolved proteins were transferred onto nitrocellulose sheets as detailed by Towbin, H. et al., Proc. Natl. Acad. Sci. USA 76, 4350-4354 (1979). The nitrocellulose membrane was then incubated with anti-EGFR antiserum or anti-HER-2/neu antiserum. Secondary antibody to IgG conjugated to horseradish peroxidase was used. The various antisera were purchased from Santa Cruz Biotechnology, Inc., CA. The blots were probed with the Renaissance Western blot detection system according to the manufacturer's instructions (PerkinElmer Life Sciences, Boston, Mass.).

[2] = system: HPV16 oncoproteins E6 and E7; test: Western and Northern blotting for HPV16 oncoproteins E6 and E7 (test (d)); type: cell-based, human papillomavirus; conditions: for Test (d) at least 50% downregulation of expression of HPV16 oncoproteins E6 and E7: positive in CaSki and SiHa cells
[3] = system: PTEN; test: Western and Northern blotting for expression of PTEN (test (e)); type: cell-based, human; conditions: for Test (e) at least 50% increase in expression of PTEN: positive in 184B5, 184B5/HER, HCA7, HCT116, SKBR3 and BT474 cells
Protocol: We turn now to criterion (e), i.e., at least 50% increase in expression of PTEN.
PTEN is a tumor suppressor that inhibits cell proliferation and induces programmed cell death. PTEN (also know as MMAC-1 or TEP-1) is described in Yamada, K. M., et al, Journal of Cell Science 114, 2375-2382, the whole of which is incorporated herein by reference.
(§1) Western blotting and Northern blotting techniques were used to evaluate the expression of PTEN. The expression of PTEN was evaluated in HCA7, HCT116, SKBR3, 184B5/HER, 184B5 and BT474 cells. 5×10^6cells were used to treat either vehicle alone or the test compound. The Western blotting analysis was performed as described above except anti-PTEN antibody was used to probe the blot. The antibody was obtained from Santa Cruz Biotechnology, Inc. CA. Northern blotting for PTEN was performed as described above and cDNA for PTEN as described in Tamura, M., et al, Science 5; 280 (5369):1614-1617 (1998), was used as a probe.

[4] = system: Nrf-2; test: Western and Northern blotting for expression of Nrf-2 (test (g)); type: cell-based, human; conditions: positive in 184B5, 184B5/HER, HCA7, HCT116, SKBR3, BT474 and CaSki cells
Protocol: We turn now to criterion (g), i.e. at least 50% increase in expression of Nrf-2. […] 13, 2001).
as §1, with “Nrf-2.” for “PTEN.”, “Nrf-2” for “PTEN”, “SKBR3, CaSki,” for “SKBR3,”, “anti-Nrf-2” for “anti-PTEN”, “Gong, P.,” for “Tamura, M.,”, “al., J.Biol Chem 20; 276:27018-27025 (2001)” for “al, Science 5; 280 (5369):1614-1617 (1998),”

Row | Structure (SMILES) | Test (b) HER-2/neu: at least 50% decrease in level of or 50% downregulation of expression [1] | Test (d) at least 50% downregulation of expression of HPV16 oncoproteins E6 and E7 [2] | Test (e) at least 50% increase in expression of PTEN [3] | Test (g) at least 50% increase in expression of Nrf-2 [4] | decrease in amounts of E6 mRNA ([2]; CaSki cells, 24 hours, 0-5.0 μM, Northern blotting) | inhibition of HPV16 E7 protein ([2]; CaSki cells, 24 hours, 0-5.0 μM, high concentration, Western blot) | increase in amounts of PTEN ([3]; 184B5 cells, 24 hours, Western blotting) [%]
1 | Cc1ccc(-c2cc(C(F)(F)F)nn2-c2ccc(S(N)(=O)=O)cc2)cc1 [Celecoxib] | + (A plus sign in the table indicates a positive result, that is meeting the test for each cell line as indicated above as providing a positive result) | + (A plus sign in the table indicates a positive result, that is meeting the test for each cell line as indicated above as providing a positive result) | + (A plus sign in the table indicates a positive result, that is meeting the test for each cell line as indicated above as providing a positive result) | + (A plus sign in the table indicates a positive result, that is meeting the test for each cell line as indicated above as providing a positive result) |  |  | 
2 | COc1ccc(OC(=O)Cc2c(C)n(C(=O)c3ccc(Cl)cc3)c3ccc(OC)cc23)cc1 [Indomethacin Analog 3, 1-(p-chlorobenzoyl)-5-methoxy-2-methyl-1H-indole-3-acetic acid, 4-methoxyphenyl ester] | + (A plus sign in the table indicates a positive result, that is meeting the test for each cell line as indicated above as providing a positive result) |  |  | + (A plus sign in the table indicates a positive result, that is meeting the test for each cell line as indicated above as providing a positive result) |  |  | 
3 | CCCCCCCOC(=O)Cc1c(C)n(C(=O)c2ccc(Cl)cc2)c2ccc(OC)cc12 [Indomethacin Analog 1, indomethacin heptyl ester] | + (A plus sign in the table indicates a positive result, that is meeting the test for each cell line as indicated above as providing a positive result) | + (A plus sign in the table indicates a positive result, that is meeting the test for each cell line as indicated above as providing a positive result) | + (A plus sign in the table indicates a positive result, that is meeting the test for each cell line as indicated above as providing a positive result) | + (A plus sign in the table indicates a positive result, that is meeting the test for each cell line as indicated above as providing a positive result) |  |  | 
4 | CS(=O)(=O)c1ccc(-n2nc(C(F)(F)F)cc2-c2ccc(F)cc2)cc1 [SC-58125, 4-[5-(4-fluorophenyl)-3-(trifluoromethyl)-1H-pyrazol-1-yl]benzenemethylsulfone] | + (A plus sign in the table indicates a positive result, that is meeting the test for each cell line as indicated above as providing a positive result) | + (A plus sign in the table indicates a positive result, that is meeting the test for each cell line as indicated above as providing a positive result) | + (A plus sign in the table indicates a positive result, that is meeting the test for each cell line as indicated above as providing a positive result) | + (A plus sign in the table indicates a positive result, that is meeting the test for each cell line as indicated above as providing a positive result) |  |  | 
5 | NS(=O)(=O)c1ccc(-n2nc(C(F)(F)F)cc2-c2ccc(Cl)cc2)cc1 [SC-236, 4-[5-(4-chlorophenyl)-3-(trifluoromethyl)-1H-pyrazol-1-yl]benzenesulfonamide] | + (A plus sign in the table indicates a positive result, that is meeting the test for each cell line as indicated above as providing a positive result) | + (A plus sign in the table indicates a positive result, that is meeting the test for each cell line as indicated above as providing a positive result) | + (A plus sign in the table indicates a positive result, that is meeting the test for each cell line as indicated above as providing a positive result) | + (A plus sign in the table indicates a positive result, that is meeting the test for each cell line as indicated above as providing a positive result) | greater than 50% | greater than 50% | > 100
